Assay [1] concerns the target T1, Prolactin-releasing peptide receptor (Homo sapiens, UniProt P49683).
T1 sequence (P49683 whole entry): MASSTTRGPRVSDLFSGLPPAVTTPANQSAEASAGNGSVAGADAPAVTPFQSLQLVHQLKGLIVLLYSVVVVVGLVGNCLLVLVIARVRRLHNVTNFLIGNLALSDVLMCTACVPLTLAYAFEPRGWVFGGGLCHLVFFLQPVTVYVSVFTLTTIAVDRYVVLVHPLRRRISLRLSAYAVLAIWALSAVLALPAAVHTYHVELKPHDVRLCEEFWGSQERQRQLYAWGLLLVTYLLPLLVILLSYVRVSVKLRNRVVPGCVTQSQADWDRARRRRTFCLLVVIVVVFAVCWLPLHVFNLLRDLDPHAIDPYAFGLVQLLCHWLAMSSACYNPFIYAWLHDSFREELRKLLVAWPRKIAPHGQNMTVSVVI

The target in assay [2] is Neuropeptide FF receptor 2 (Homo sapiens, UniProt Q9Y5X5).
Chain of Neuropeptide FF receptor 2 (Q9Y5X5 whole entry): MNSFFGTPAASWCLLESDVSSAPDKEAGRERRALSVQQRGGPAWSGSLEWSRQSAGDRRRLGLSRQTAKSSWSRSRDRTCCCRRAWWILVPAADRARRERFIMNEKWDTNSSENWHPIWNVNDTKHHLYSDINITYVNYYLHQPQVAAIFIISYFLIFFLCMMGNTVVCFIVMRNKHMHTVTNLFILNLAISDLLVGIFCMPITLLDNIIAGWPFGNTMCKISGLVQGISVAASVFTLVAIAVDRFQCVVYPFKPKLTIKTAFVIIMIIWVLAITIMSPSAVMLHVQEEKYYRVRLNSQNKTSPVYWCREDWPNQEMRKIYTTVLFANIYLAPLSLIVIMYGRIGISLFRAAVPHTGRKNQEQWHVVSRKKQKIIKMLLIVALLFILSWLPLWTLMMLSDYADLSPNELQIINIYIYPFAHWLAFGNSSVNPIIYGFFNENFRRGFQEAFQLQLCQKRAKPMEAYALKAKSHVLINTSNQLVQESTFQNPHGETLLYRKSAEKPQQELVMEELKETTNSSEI

This is an account of results in BindingDB's records for doi:10.1124/jpet.102.047118 (Juvantia Pharma, 2003).

Several values for one entry are separate records, joined by “and”; a condition that tells them apart may be missing. Equal entries are not always repeated. Peptide text beside a SMILES is read from it.

Turning to `CC(C)C[C@H](NC(=O)[C@@H](N)Cc1ccccc1)C(=O)N[C@@H](Cc1ccccc1)C(=O)N[C@@H](CCC(N)=O)C(=O)N1CCC[C@H]1C(=O)N[C@@H](CCC(N)=O)C(=O)N[C@@H](CCCN=C(N)N)C(=O)N[C@@H](Cc1ccccc1)C(N)=O` [CAS_235433-36-0], the Ki is 5.2 nM and 5.9 nM.

`CSCC[C@H](N)C(=O)N1CCC[C@H]1C(=O)N[C@@H](Cc1cnc[nH]1)C(=O)N[C@@H](CO)C(=O)N[C@@H](Cc1ccccc1)C(=O)N[C@@H](C)C(=O)N[C@@H](CC(N)=O)C(=O)N[C@@H](CC(C)C)C(=O)N1CCC[C@H]1C(=O)N[C@@H](CC(C)C)C(=O)N[C@@H](CCCNC(=N)N)C(=O)N[C@@H](Cc1ccccc1)C(N)=O` [RFamide-related peptide 1] (H-MPHSFANLPLRF-NH2) registered a Ki of 15 nM. The molecule also yielded a Ki in assay [1] greater than 10000 nM. In assay [2], affinity was put at a Ki of 15 nM.

`CC(C)C[C@H](NC(=O)[C@@H](N)Cc1ccccc1)C(=O)N[C@@H](Cc1ccccc1)C(=O)N[C@@H](CCC(N)=O)C(=O)N1CCC[C@H]1C(=O)N[C@@H](CCC(N)=O)C(=O)N[C@@H](CCCN=C(N)N)C(=O)N[C@@H](Cc1ccccc1)C(=O)O` [NSC_0] showed an inhibition constant Ki of 2400 nM.

The molecule `CC(C)C[C@H](NC(=O)[C@H](CC(N)=O)NC(=O)[C@@H]1CCCN1C(=O)[C@@H](N)C(C)C)C(=O)N1CCC[C@H]1C(=O)N[C@@H](CCC(N)=O)C(=O)N[C@@H](CCCNC(=N)N)C(=O)N[C@@H](Cc1ccccc1)C(N)=O` [RFamide-related peptide 3] came in with an inhibition constant (Ki) of 19 nM. Further, the Ki in assay [1] was greater than 10000 nM. The affinity in assay [2], expressed as Ki, was 55 nM.

With `N=C(N)NCCCC(NC(=O)C(c1ccccc1)c1ccccc1)C(=O)NCc1ccc(O)cc1` (configuration not stated) [NSC_5311023], the inhibitory constant (Ki) turned out to be 390 nM. Besides, the inhibition constant (Ki) in assay [1] was greater than 10000 nM. The molecule further registered a Ki in assay [2] of 640 nM.

For the molecule `CC[C@H](C)[C@H](NC(=O)CN)C(=O)N[C@@H](CCCN=C(N)N)C(=O)N1CCC[C@H]1C(=O)N[C@H](C(=O)NCC(=O)N[C@@H](CCCN=C(N)N)C(=O)N[C@@H](Cc1ccccc1)C(N)=O)C(C)C` [NSC_0] (H-GIRPVGRF-NH2), the Ki in assay [1] was 47 nM; in assay [2] it was 32 nM.

Molecule `CC(C)C[C@H](NC(=O)[C@H](N)Cc1ccc(O)cc1)C(=O)N(C)[C@@H](Cc1ccccc1)C(=O)N[C@@H](CCC(N)=O)C(=O)N1CCC[C@H]1C(=O)N[C@@H](CCC(N)=O)C(=O)N[C@@H](CCCN=C(N)N)C(=O)N[C@@H](Cc1ccccc1)C(N)=O` [CAS_132709] (HELM PEPTIDE1{[dY].L.[meF].Q.P.Q.R.F.[am]}$$$$V2.0) showed an inhibitory constant (Ki) in assay [2] of 5.3 nM.

As to `CC[C@H](C)[C@H](NC(=O)CNC(=O)[C@H](CCCNC(=N)N)NC(=O)CNC(=O)[C@@H](NC(=O)[C@H](Cc1ccc(O)cc1)NC(=O)[C@H](Cc1c[nH]c2ccccc12)NC(=O)[C@H](C)NC(=O)[C@@H]1CCCN1C(=O)[C@H](CC(N)=O)NC(=O)[C@@H](NC(=O)[C@H](CC(=O)O)NC(=O)[C@@H]1CCCN1C(=O)[C@@H](N)[C@@H](C)O)[C@@H](C)CC)[C@@H](C)O)C(=O)N[C@@H](CCCNC(=N)N)C(=O)N1CCC[C@H]1C(=O)N[C@H](C(=O)NCC(=O)N[C@@H](CCCNC(=N)N)C(=O)N[C@@H](Cc1ccccc1)C(N)=O)C(C)C` [CAS_222988-10-5] (H-TPDINPAWYTGRGIRPVGRF-NH2), the inhibitory constant (Ki) amounted to 2.3 nM. For the same molecule, the Ki in assay [1] stood at 1 nM. In assay [2], this molecule registered a Ki of 23 nM.

Broadly, the Ki is the dissociation constant of the complex between target and ligand, obtained from inhibition or displacement. Lower therefore signals tighter binding.
